Results taken from patent US20100298280A1, “Compounds for the Modulation of Huntingtin Aggregation, Methods and Means for Identifying Such Compounds” (priority 2007, published 2010).
Entries after “also recorded” stand apart in the source; their conditions may differ.

What was measured:
[1] = molecular target: T1, mutant huntingtin aggregates (HDex1Q68 fused to ECFP/EYFP) (Homo sapiens, UniProt P42858, INS38QQQQQQQQQQQQQQQQQQQQQQQQQQQQQQQQQQQQQQQQQQQQQQQ); assay: Cellular FRET aggregation assay in stable Tet-off CHO-AA8/Q68-Q68 cells; format: cell-based; details: for apparent inhibitory effects due to toxic effects (concentration): FRET decrease attributed to toxicity
Experimental: To determine the potential of possibly inhibiting substances the inventors performed dose response assays at concentrations ranging from 1, to 100 μM.
Screening was performed in 96-well plates (greiner bio-one) containing 1×10^4 cells/well of the stably inducible tet off cell lines htt-mut (six-fold) and CHO-AA8 line (three fold) for background control. Simultaneously, each compound was checked for its potential autofluorescence.
Two stable inducible CHO Tet off cell lines were constructed expressing simultaneously wildtype (CHO-AA8/Q17-Q17) or mutant (CHO-AA8/Q68-Q68) huntingtin fragments fused to ECFP or EYFP (FIG. 1B) after withdrawal of doxicycline (dox). Basal and induced expression levels of huntingtin fusion proteins were examined by Western blot analysis at different time intervals (4, 24, 48, and 72 hours). […] For the screening approach stable inducible huntingtin expressing cell lines were seeded in 96-well plates and the fluorescence intensities were measured with a fluorescence plate reader.
The test compounds were mixed in a fresh doxicycline-free medium with 2% DMSO and added to the Tet off cell lines two to three hours after seeding and attachment of the cells.
(§1) The FRET-measurement was performed 48 h later.
Subsequently, a second screening round was performed at concentration range 1, 3, and 10 μM, respectively.

CHO-AA8/Q68-Q68 cells = assay: Propidium iodide exclusion assay (viability, cell number) following the FRET assay; details: after 48 h; for Viability ↓ (concentration) / Viability (effect in words): propidium iodide exclusion
Experimental: CHO-AA8/Q68-Q68, CHO-AA8/Q17-Q17 and CHO-AA8 cells were seeded in 96 well plates. After attachment of the cells, the medium was exchanged for Ham's F 12 medium containing 10% doxicycline free FBS and 2% DMSO supplemented with compounds. After 48 h the fluorescence intensities of cells were measured using a fluorescence plate reader (Fluoroscan Ascent, Thermo Scietific) and filtersets for CFP (ex 444 nm, em 485 nm), YFP(ex 485 nm, em 538 nm) and FRET (ex 444 nm, em 538 nm). After correction of background fluorescence (subtraction of CHO-AA8 cell fluorescence intensities) the FRET signal was determined using the method: FA=(FRET-a*YFP)/CFP with a=0.11 (Zal u. Gascoigne 2004, Zal et al. 2002). In following, the viability of cells was measured using a propidium iodide exclusion assay (Sattler et al. 1997). PI was added to the cells at final concentration of 0.15 mg/ml. After 15 minutes the PI fluorescence intensity was measured (ex 530 nm, em 620 nm). The cells were then lysed with 0.5% Triton X-100 (TX100) and the PI fluorescence intensity was measured again. Viability of cells was calculated as viability=1−(PIbefore TX100/PIafter TX100).
as §1

[2] = test system: mutant huntingtin aggregates; assay: Filter retardation assay on lysates of treated cells (immunodetection); format: cell-based; details: increasing concentrations
Experimental: (C) Immunodetection of mutant huntingtin aggregates upon PGL-135 treatment of cells using a filter retardation assay.
The filter retardation assay was accomplished as described (Scherzinger et al., 1999). Cells were lysed (100 mM NaCl, 5 mM MgCl2, 0.5% NP-40, 1 mM EDTA, 50 mM Tris-HCl, protease inhibitors, 25 U/mL benzonase, pH 8.8), denatured 5 min at 95° C. with 2% SDS/50 mM DTT and cell lysates equal 2 μg protein were filtered through a 0.2 μm cellulose acetate membrane (Schleicher & Schuell) using a dot blot unit. The immunodetection was performed using the same antibody detection system as described above. Quantitative determination of the relative aggregate amount was evaluated with the Lumi Imager F1 System and Lumi Analyst 3.0 (Boehringer Mannheim, Germany).
The coherence between decreasing FRET values and less polyglutamine aggregates in PGL-135 treated cells was further validated by fluorescence microscopy imaging (data not shown) and a filter retardation assay (Heiser et al., 2000) (FIG. 2C).

[3] = molecular target: T2, GST-tagged mutant htt-exon-1 with 51 polyglutamines (GST-HDexQ51) (Homo sapiens, UniProt P42858, INS38QQQQQQQQQQQQQQQQQQQQQQQQQQQQQQ); assay: Cell free filter retardation assay; format: biochemical; details: tested 1-200 μM
T2 construct: GST-tagged mutant htt-exon-1 with 51 polyglutamines (GST-HDexQ51); GST (N, cleaved yes)
Experimental: To determine if the cellular environment is a prerequisite for the inhibitory effect of the isolated natural compounds or if the compounds directly interfere with the aggregation process, the inventors performed a cell free filter retardation assay (Scherzinger et al., 1997).
Briefly, GST-tagged mutant htt-exon-1 with 51 polyglutamines (GST-HDexQ51) is incubated with the compounds and factor Xa to remove the GST tag for proper aggregation (16 h, 23° C.). The aggregated peptides are denaturized by boiling in SDS buffer (10 min, 99° C.) and filtered though a cellulose acetate membrane. The insoluble aggregates are retained at the membrane and detected with an anti-huntingtin antibody.
The isolated natural compounds, PGL-135 and congo red were tested in a concentration range of 1-200 μM. […] (Data not shown). Concentration of less than 50 μM congo red produced an enhancement of the aggregation process.

[4] = molecular target: T1, mutant huntingtin aggregates (HDex1Q68 fused to ECFP/EYFP); assay: Cellular FRET aggregation assay in stable Tet-off CHO-AA8/Q68-Q68 cells; format: cell-based; details: half-maximal inhibition of FRET signal, dose response 0.7-50 μM

T1 sequence (P42858 1-88, stated change not applied): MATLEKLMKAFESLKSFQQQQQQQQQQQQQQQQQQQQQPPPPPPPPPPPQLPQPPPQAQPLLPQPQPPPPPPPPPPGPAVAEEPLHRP
T2 sequence (P42858 with tags, fused parts or gaps with the stated changes): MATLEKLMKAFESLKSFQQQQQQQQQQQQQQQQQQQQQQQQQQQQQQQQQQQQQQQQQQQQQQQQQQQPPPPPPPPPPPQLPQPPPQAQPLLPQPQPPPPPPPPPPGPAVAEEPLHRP

Row | Compound | Cell number ↓ (concentration) (CHO-AA8/Q68-Q68 cells) | FRET-signal (effect in words) ([1]; 48 h, 2% DMSO) | Cell number (effect in words) (CHO-AA8/Q68-Q68 cells) | Viability (effect in words) (CHO-AA8/Q68-Q68 cells) | further results
1 | C=CCNC1=C2C[C@@H](C)C[C@H](OC)[C@H](O)[C@@H](C)/C=C(\C)[C@H](OC(N)=O)[C@@H](OC)/C=C\C=C(/C)C(=O)NC(=CC1=O)C2=O [17-AAG] | ↓ ≧0.3 μM | – | – | – | FRET-signal ↓ (concentration from which aggregation is reduced) ([1]; 48 h, 2% DMSO): ↓ ≧0.3 μM; apparent inhibitory effects due to toxic effects (concentration) [1]: > 0.7 µM; Viability ↓ (concentration) (CHO-AA8/Q68-Q68 cells): ↓ ≧0.3 μM
2 | CN(CC(=O)O)C(=N)N [Creatine] | – | no effect | no effect | no effect | FRET-signal (effect in words) ([1]; 48 h, 2% DMSO, listed as creatin): no effects
3 | NCCSSCCN [Cystamine] | – | no effect | no effect | no effect | FRET-signal (effect in words) ([1]; 48 h, 2% DMSO, listed as cystamine dihydrochloride): no effects
4 | O=C(O)Cc1ccccc1Nc1c(Cl)cccc1Cl [Diclofenac] | ↓ ≧250 nM | no effect | – | no effect | FRET-signal (effect in words) ([1]; 48 h, 2% DMSO, listed as diclofenac): no effects
5 | COc1ccc2c(c1)c(CC(=O)O)c(C)n2C(=O)c1ccc(Cl)cc1 [Indomethacin] | ↓ ≧1.25 μM | – | – | – | FRET-signal ↓ (concentration from which aggregation is reduced) ([1]; 48 h, 2% DMSO): ↓ ≧1.25 μM; Viability ↓ (concentration) (CHO-AA8/Q68-Q68 cells): ↓ 10 μM
6 | CC(Cc1ccc(O)c(O)c1)C(C)Cc1ccc(O)c(O)c1 (stereo not shown) [NDGA] | ↓ 500 nM | no effect | – | no effect | –
7 | Cc1cc(O)c(C)c2sc(N)nc12 [PGL-135] | – | decrease | no effect | not affected; also recorded: without affecting the cell viability; also recorded: no effect | mutant huntingtin aggregates in filter retardation assay [2]: significant decrease; inhibition of aggregate formation (in words) [3]: Only congo red reliably inhibited the formation of aggregates
8 | Nc1nc2ccc(OC(F)(F)F)cc2s1 [Riluzole] | – | – | no effect | no effect | –
9 | C=C1[C@@H]2CC[C@@]3(C)[C@H](c4ccoc4)OC(=O)C[C@]13O[C@H]1CC(=O)C(C)(C)[C@H](CC(=O)OC)[C@]12C [S2, angolensic acid methylester] | – | – | – | – | EC50 [4]: 3000 nM
10 | O=C(CCCCCN1C(=O)c2cccc3cccc(c23)C1=O)NO [Scriptaid] | ↓ ≧25 μM | – | decreased | – | FRET-signal ↑ (concentration from which aggregation is increased) ([1]; 48 h, 2% DMSO): ↑ ≧25 μM; Viability ↓ (concentration) (CHO-AA8/Q68-Q68 cells): ↓ ≧25 μM
11 | OC[C@H]1O[C@H](O[C@H]2O[C@H](CO)[C@@H](O)[C@H](O)[C@H]2O)[C@H](O)[C@@H](O)[C@@H]1O [Trehalose] | – | no effect | no effect | no effect | FRET-signal (effect in words) ([1]; 48 h, 2% DMSO, listed as threhalose): no effects
12 | C[C@@H](N)[C@H]1CC[C@H](C(=O)Nc2ccncc2)CC1 [Y-27632] | – | no effect | no effect | no effect | apparent inhibitory effects due to toxic effects (concentration) [1]: > 12.5 µM
13 | O=C(O)c1cc(/N=N/c2ccc(-c3ccc(/N=N/c4ccc(O)c(C(=O)O)c4)cc3)cc2)ccc1O [chrysamine G] | – | no effect | no effect | no effect | FRET-signal (effect in words) ([1]; 48 h, 2% DMSO, listed as Chrysamine G): no effects
14 | COC1=C(OC)C(=O)C(C/C=C(\C)CC/C=C(\C)CC/C=C(\C)CC/C=C(\C)CC/C=C(\C)CC/C=C(\C)CC/C=C(\C)CC/C=C(\C)CC/C=C(\C)CCC=C(C)C)=C(C)C1=O [coenzyme Q10] | – | no effect | no effect | no effect | –
15 | Nc1c(/N=N/c2ccc(-c3ccc(/N=N/c4cc(S(=O)(=O)O)c5ccccc5c4N)cc3)cc2)cc(S(=O)(=O)O)c2ccccc12 [congo red] | ↓ ≧125 μM | – | – | no effect | FRET-signal ↓ (concentration from which aggregation is reduced) ([1]; 48 h, 2% DMSO): ↓ ≧30 μM; FRET-signal ↓ (concentration from which aggregation is reduced) ([1]; 48 h, 2% DMSO, listed as Congo red): > 30 µM; enhancement of the aggregation process (concentration) ([3]; 16 h, 23° C.): less than 50 μM; inhibited the formation of aggregates (concentration) ([3]; 16 h, 23° C.): > 50 µM
16 | COC1=C2C[C@@H](C)C[C@H](OC)[C@H](O)[C@@H](C)/C=C(\C)[C@H](OC(N)=O)[C@@H](OC)/C=C\C=C(/C)C(=O)NC(=CC1=O)C2=O [geldanamycin] | – | – | no effect | no effect | –
17 | O=C([O-])c1ccccc1O.[Na+] [sodiumsalicylat] | – | no effect | – | no effect | FRET-signal (effect in words) ([1]; 48 h, 2% DMSO, listed as sodiumsalyicylate): no effects
18 | half-Chrysamine G | – | no effect | no effect | no effect | FRET-signal ↓ (concentration from which aggregation is reduced) ([1]; 48 h, 2% DMSO): > 2.5 µM
